Source: patent publication US20220257621A1, “CANCER CELL PROLIFERATION SUPPRESSION AGENT AND COMPOSITION FOR SUPPRESSING PROLIFERATION OF CANCER CELLS” (SHOWA DENKO K.K., priority 2019, published 2022)

What was measured:
ARNT gene = assay: Suppression of ARNT gene expression induced by atmospheric dust (quantitative real-time PCR); type: cell-based, human; details: NHEK; sample 0.001% by mass 24 h, then atmospheric dust (NIST 1648a) 500 μg/mL 48 h; standardized to GAPDH; control without dust = 1; dust + water = 1.74
Description: The effect of the inositol derivative on suppressing the expression of an ARNT gene in normal human epidermal keratinocytes (NHEK, manufactured by KURABO INDUSTRIES LTD.) was measured under the following conditions. The NHEK cells were seeded in a HuMedia KG2 medium manufactured by KURABO INDUSTRIES LTD. at the seeding density of 10000 cells/cm^2, and cultured for 24 hours under the conditions of 37° C. and 5% CO2. Next, an aqueous solution of the inositol derivative or an aqueous solution of myo-inositol was added to the culture medium so that the final concentration of the inositol derivative or myo-inositol was 0.001% by mass, or water (pure water) was added to the culture medium, and culturing was further performed for 24 hours. […] Using this cDNA as a template, the expression level of the ARNT gene was quantitatively determined by quantitative real-time PCR using a primer specific to the ARNT gene (Perfect Real Time Primer, manufactured by Takara Bio Inc.). As an internal standard gene, the expression level of GAPDH was quantitatively determined (primer used: Perfect Real Time Primer, manufactured by Takara Bio Inc.), and the expression level of the ARNT gene was standardized based on the expression level of GAPDH. […]

[1] = system: normal human epidermal keratinocytes (NHEK); assay: Effect (1) of suppressing ROS production induced by atmospheric dust (ROS assay kit, fluorescence); type: cell-based
Description: The effect of the inositol derivative on suppressing ROS production in normal human epidermal keratinocytes (NHEK, manufactured by KURABO INDUSTRIES LTD.) was measured under the following conditions. The NHEK cells were seeded in a HuMedia KG2 medium manufactured by KURABO INDUSTRIES LTD. at the seeding density of 10000 cells/cm^2, and cultured for 24 hours under the conditions of 37° C. and 5% CO2. Next, an aqueous solution of the inositol derivative or an aqueous solution of myo-inositol was added to the culture medium so that the final concentration of the inositol derivative or myo-inositol was 0.001% by mass, or water (pure water) was added to the culture medium, and culturing was further performed for 24 hours. Thereafter, 0.1 mL of a DMSO solution of atmospheric dust (NIST 1648a) was added per 100 mL of the culture medium so that the final concentration of the atmospheric dust in the culture medium was 500 μg/mL, and culturing was further performed for 48 hours in the same conditions as above. Thereafter, the ROS production amount was measured using a ROS assay kit (manufactured by OZ BIOSCIENCES). […] After washing the cells with PBS again, 100 μL of PBS was added, and the fluorescence intensity at an excitation wavelength of 485 nm/an absorption wavelength of 535 nm was measured with a microplate reader i-Control (manufactured by Tecan Group Ltd.). […]

CYP1B1 gene = assay: Suppression of CYP1B1 gene expression induced by atmospheric dust (quantitative real-time PCR); type: cell-based, human; details: NHEK; sample 0.001% by mass 24 h, then atmospheric dust (NIST 1648a) 500 μg/mL 48 h; standardized to GAPDH; control without dust = 1; dust + water = 4.30
Description: The effect of the inositol derivative on suppressing the expression of a CYP1A1 gene and a CYP1B1 gene in normal human epidermal keratinocytes (NHEK, manufactured by KURABO INDUSTRIES LTD.) was measured under the following conditions.
The NHEK cells were seeded in a HuMedia KG2 medium manufactured by KURABO INDUSTRIES LTD. at the seeding density of 10000 cells/cm^2, and cultured for 24 hours under the conditions of 37° C. and 5% CO2. […] Using this cDNA as a template, the expression levels of the CYP1A1 gene and the CYP1B1 gene were quantitatively determined by quantitative real-time PCR using primers (QuantiTect Primer Assays, manufactured by QIAGEN) specific to the CYP1A1 gene and the CYP1B1 gene. As an internal standard gene, the expression level of a GAPDH gene, which is a housekeeping gene in which expression fluctuation due to the addition of atmospheric dust is not shown, was quantitatively determined (primer used: Perfect Real Time Primer, manufactured by Takara Bio Inc.), and the expression levels of the CYP1A1 gene and the CYP1B1 gene were standardized based on the expression level of GAPDH. […]

Relative gene expression level CYP1B1 (CYP1B1 gene): 1.08
SMILES: O[C@H]1[C@H](O)[C@@H](O)[C@H](O)[C@@H](O)[C@H]1O [myo-Inositol, myo-inositol]
Relative gene expression level ARNT (ARNT gene): 1.85
Effect of suppressing ROS production as compared to the water-added group ([1]; 0.001% by mass, atmospheric dust 500 μg/mL): not recognized
Relative ROS production amount ([1]; sample 0.001% by mass 24 h, then atmospheric dust 500 μg/mL 48 h, fluorescence relative to control without dust = 1, dust + water = 1.46): 1.83
